Reference: patent US20040005537A1, “Method of identifying toxic agents using differential gene expression” (priority 2000, published 2004)

Tested on: rat heart tissue
Assay: GENECALLING differential gene expression analysis after dosing of serotonin modulating agents
Assay type: in vivo, Sprague Dawley rats
Method in brief: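 GENECALLING profiling of cDNA from total RNA, keeping gene fragments modulated beyond ±1.5-fold. Tissue collected 24 h after final dosing of serotonin modulating agents; control rats received sterile water or canola oil.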

CC(C)CC(N(C)C)C1(c2ccc(Cl)cc2)CCC1 (stereo not drawn) [sibutramine]
Effects on Transcription Level: Novel gene fragment, 524 bp, 86% SI to mouse F-box protein FBX6b [AF176526] (CARDIOTOX 1): +1.3 fold
Effects on Transcription Level: Novel gene fragment, 306 bp, 91% SI to mouse low density lipoprotein receptor related protein 4 [AB013874] (CARDIOTOX 2): −1.3 fold
Effects on Transcription Level: Novel gene fragment, 540 bp, 97% SI to mouse skeletal muscle alpha-actin [X03766] (CARDIOTOX 3): −1.1 fold
Effects on Transcription Level: Novel gene fragment, 80 bp (CARDIOTOX 4): −1.3 fold
Effects on Transcription Level: Novel gene fragment, 957 bp, 99% SI to kidney injury associated moleculer HW036 [V80591] (CARDIOTOX 5): −1.0 fold
Effects on Transcription Level: Novel gene fragment, 282 bp, 85% SI to human KIAA1515 protein [AB040948] (CARDIOTOX 6): −1.4 fold
Effects on Transcription Level: Novel gene fragment, 405 bp, 88% SI to human 2-oxoglutarate dehydrogenase [D10523] (CARDIOTOX 7): −1.4 fold
Effects on Transcription Level: UCP2 (CARDIOTOX 8, GenBank AB010743): −1.3 fold
Effects on Transcription Level: Plasma membrane Ca2 + ATPase-isoform 1 (CARDIOTOX 9, GenBank J03753): +1.2 fold
Effects on Transcription Level: Novel gene fragment, 242 bp, 97% SI to mouse HSP86 heat-shock protein [X16857] (CARDIOTOX 10): +1.4 fold
Effects on Transcription Level: Novel gene fragment, 280 bp, 65% SI to human TRF1-interacting, ankyrin-related ADP-ribose polymerase [AF082556] (CARDIOTOX 11): +1.2 fold
Effects on Transcription Level: Novel gene fragment, 348 bp, 88% SI to mouse Sec61 protein complex gamma subunit [U11027] (CARDIOTOX 12): +1.4 fold
Effects on Transcription Level: Novel gene fragment 553 bp, 93% SI to mouse Sid329 [AB024984] (CARDIOTOX 13): +1.1 fold
Effects on Transcription Level: Kruppel-like transcription factor (CARDIOTOX 14, GenBank AB020759): +1.1 fold
Effects on Transcription Level: Ribosomal protein L3 (CARDIOTOX 15, GenBank X62166): +1.3 fold
Effects on Transcription Level: Glucose-regulated protein (GRP) 75 (CARDIOTOX 16, GenBank S78556): +1.1 fold
Effects on Transcription Level: Immunoglobulin heavy chain binding protein (BiP) (CARDIOTOX 17, GenBank M14050): −1.1 fold
Effects on Transcription Level: Membrane-spannining proteoglycan NG2 (CARDIOTOX 18, GenBank X56541): −1.1 fold
Effects on Transcription Level: Novel gene fragment, 1294 bp, 96% SI to mouse Sui 1 (elF) homolog [AF129888] (CARDIOTOX 19): +1.1 fold
Effects on Transcription Level: Novel gene fragment, 723 bp, 85% SI to human translation initiation factor elF3 p40 subunit [U54559] (CARDIOTOX 20): −1.1 fold
Effects on Transcription Level: Novel gene fragment, 1324 bp, 76% SI to human flavoprotein subunit of complex II [D30648] (CARDIOTOX 21): +1.4 fold
Effects on Transcription Level: Novel gene fragment, 852 bp, 81% SI to human vacuolar proton-ATPase subunit M9.2 [Y15286] (CARDIOTOX 22): +1.2 fold
Effects on Transcription Level: Novel gene fragment, 178 bp, 91% SI to mouse myosin light chain-2 isoform MLC-2a [S70785] (CARDIOTOX 23): +1.4 fold
Effects on Transcription Level: Novel gene fragment, 167 bp, 90% SI to mouse Rab20 [X80332] (CARDIOTOX 24): +1.0 fold
Effects on Transcription Level: Novel gene fragment, 1070 bp, 80% SI to human muscle-specific protein [AF249873] (CARDIOTOX 25): +1.2 fold
Effects on Transcription Level: Novel gene fragment, 1143 bp, 82% SI to human sarcoma amplified sequence (SAS) [U01160] (CARDIOTOX 26): +1.3 fold
Effects on Transcription Level: Novel gene fragment, 74 bp,75% SI to human secreted protein [X30160] (from patent database)/[X97578] (from patent database)/potential cytokine) (CARDIOTOX 27): −1.3 fold
Effects on Transcription Level: Novel gene fragment, 408 bp, 90% SI to human CGI-07 protein [AF132941] (CARDIOTOX 28): −1.0 fold
Effects on Transcription Level: Novel gene fragment, 618 bp, 95% SI to rat progression related cDNA, ZNPE-120 3′ end partial sequence [patent database X90805] (CARDIOTOX 29): +1.0 fold
Effects on Transcription Level: Novel gene fragment, 717 bp (CARDIOTOX 30): +1.2 fold
Effects on Transcription Level: Novel gene fragment, 546 bp (CARDIOTOX 31): +1.3 fold
Effects on Transcription Level: Novel gene fragment, 920 bp, 91% SI to human HSPC061 [AF161546] (CARDIOTOX 32): +1.2 fold
Effects on Transcription Level: Novel gene fragment, 203 bp, 92% SI to rabbit sarcoplasmic reticulum glycoprotein [J04480] (CARDIOTOX 33): −1.2 fold
Effects on Transcription Level: Novel gene fragment, 178 bp, 68% SI to mouse IgG receptor (beta-Fc-gamma-RII)[M63159] (CARDIOTOX 34): +1.4 fold
Effects on Transcription Level: Ribosomal protein L6 (CARDIOTOX 35, GenBank X87107): +1.4 fold
Effects on Transcription Level: CAP2 protein (adenylyl cyclase-associated protein 2) (CARDIOTOX 36, GenBank U31935): +1.4 fold
Effects on Transcription Level: Alpha-platelet-derived growth factor receptor (CARDIOTOX 37, GenBank M63837): −1.1 fold
Effects on Transcription Level: Rab GD1 alpha protein (CARDIOTOX 38, GenBank X74402): −1.1 fold
Effects on Transcription Level: PKC-zeta-interacting protein (CARDIOTOX 39, GenBank Y08355): −1.2 fold
Effects on Transcription Level: ERK or MAP kinase (CARDIOTOX 40, GenBank X65198): +1.4 fold
Effects on Transcription Level: Peroxisomal multifunctional enzyme type II (CARDIOTOX 41, GenBank U37486): +1.3 fold
Effects on Transcription Level: HBP23 (heme-binding protein 23 kDa) (CARDIOTOX 42, GenBank D30035): +1.3 fold
Effects on Transcription Level: Caveolae-associated protein (CARDIOTOX 43, GenBank U90725): −1.0 fold
Effects on Transcription Level: Prenylated rab acceptor 1 (PRA1) (CARDIOTOX 44, GenBank AF025506): +1.4 fold
Effects on Transcription Level: Novel gene fragment, 337 bp, 88% SI to rabbit cardiac ryanodine receptor (RyR-2)[U50465] (CARDIOTOX 45): −1.3 fold
Effects on Transcription Level: Novel gene fragment, 81 bp, 85% SI to human titin [X90568] (CARDIOTOX 46): −1.3 fold
Effects on Transcription Level: Novel gene fragment, 428 bp, 86% SI to human titin [X90568] (CARDIOTOX 47): −1.1 fold
Effects on Transcription Level: Novel gene fragment, 374 bp, 88% SI to human titin [X90568] (CARDIOTOX 48): −1.2 fold
Effects on Transcription Level: Novel gene fragment, 428 bp, 85% SI to human titin [90568] (CARDIOTOX 49): −1.3 fold
Effects on Transcription Level: Novel gene fragment, 1216 bp, 93% SI to mouse mircotubule-associated protein (MAP) 1B protein [AF115776] (CARDIOTOX 50): −1.1 fold
Effects on Transcription Level: Novel gene fragment, 1115 bp, 83% SI to human KIAA0549 protein [AB011121] (CARDIOTOX 51): −1.4 fold
Effects on Transcription Level: Novel gene fragment, 153 bp (CARDIOTOX 52): −1.2 fold
Effects on Transcription Level: Novel gene fragment, 89 bp, 93% SI to human putative glialblastoma cell differentiation-related protein (GBDR1) [AF068195] (CARDIOTOX 53): +1.4 fold
Effects on Transcription Level: Rho-associated kinase beta (CARDIOTOX 54, GenBank U61266): −1.1 fold
Effects on Transcription Level: Adenylate kinase 3 (CARDIOTOX 55, GenBank D13062): +1.4 fold
Effects on Transcription Level: Amyloid beta-peptide binding protein (CARDIOTOX 56, GenBank AF049878): +1.3 fold
Effects on Transcription Level: Mitochondrial adenine nuleotide translocator (CARDIOTOX 57, GenBank D12771): +1.4 fold
Effects on Transcription Level: Novel gene fragment, 710 bp, 94% SI to mouse chromatin structural protein homolog Supt5 hp (Supt5 h)[U88539] (CARDIOTOX 58): +7.5 fold
Effects on Transcription Level: Novel gene fragment, 186 bp, 66% SI to human N-acetylglucosaminyltransferase 1 (GlcNAc-TI)[M55621] (CARDIOTOX 60): −1.9 fold
Effects on Transcription Level: Novel gene fragment, 238 bp, 95% SI to mouse MAP kinase-activated protein kinase 2 [X76850] (CARDIOTOX 61): −2.8 fold
Effects on Transcription Level: Novel gene fragment, 173 bp, 70% SI to G protein-coupled receptor kinase GRK4 [X97568] (CARDIOTOX 62): −5.3 fold
Effects on Transcription Level: Novel gene fragment, 133 bp, 77% SI to human apoptosis related protein hSARP3 [patent database: V19114] (CARDIOTOX 63): −2.0 fold
Effects on Transcription Level: Novel gene fragment, 477 bp, 98% SI to peroxisomal phytanoyl-CoA hydroxylase (PHYH) [AF121345] (CARDIOTOX 64): +7.0 fold
Effects on Transcription Level: Novel gene fragment, 413 bp, 95% SI to mouse dihydrolipoamide dehydrogenase (Dld) [U73445] (CARDIOTOX 65): +1.6 fold
Effects on Transcription Level: Novel gene fragment, 726 bp, 76% SI to human succinate dehydrogenase flavoprotein subunit (SDH) [L21936] (CARDIOTOX 66): −3.0 fold
Effects on Transcription Level: Novel gene fragment, 440 bp, 92% SI to mouse cytochrome c oxidase Vllc [X52940] (CARDIOTOX 67): +11.5 fold
Effects on Transcription Level: Novel gene fragment, 276 bp, 80% SI to human titin [X90568] (CARDIOTOX 68): −6.6 fold
Effects on Transcription Level: Novel gene fragment, 149 bp, 70% SI to human titin [X90568] (CARDIOTOX 69): −2.4 fold
Effects on Transcription Level: Novel gene fragment, 467 bp, 94% SI to mouse gelsolin [J04953] (CARDIOTOX 70): −1.7 fold
